Earlier results, collected in paper PMC11291603, “Histidine-based ionizable cationic surfactants: novel biodegradable agents for hydrophilic macromolecular drug delivery” (Drug Delivery and Translational Research, 2024).

Experiments:
[1] = as specified by the manufacturer
[2] = literature value, no reference given

| SMILES | Aqueous solubility [1] [µg/mL] | pKa of the imidazolium ring [2] |
| --- | --- | --- |
| CCCCCCCCC(CO)CCCCCC (centres unmarked) [2-hexyl-1-decanol] | 1 | – |
| N[C@@H](Cc1c[nH]cn1)C(=O)O [histidine] | – | 6.0-6.1 |
